pKd: −log10 of the molar value.
Assay: Affinity for bacterial ZipA-FtsZ protein-protein interaction
Design: species or system Escherichia coli

Q: With `CC(=O)Nc1cccc(-c2ccc3nnc(-c4ccccc4)n3n2)c1` as the molecule, how does the pKd read?
A: The pKd was 4.13.

Q: With `CC(=O)N(C)c1cccc(-c2ccc3nnc(-c4cccnc4)n3n2)c1` as the molecule, how does the pKd read?
A: Its pKd is 4.07.
